ChEMBL document CHEMBL1131944, “Phospholipase A2-like catalytic antibody” (Bioorg Med Chem Lett, 1999)

Assays:
13C-1F6 = experiment: Michaelis-Menten Kinetic rate constant in the hydrolysis by 13C-1F6 was determined.; type: ADME
[1] = The catalytic rate constant in the hydrolysis by 13C-1F6 was determined by Michaelis-Menten Kinetics.; type: ADME
[2] = Compound was tested for the inhibition of antibody-catalyzed hydrolysis.

| Km (13C-1F6) [µM] | k cat [1] [s⁻¹] | Ki [2] [µM] | SMILES |
| --- | --- | --- | --- |
| 71 | 0.00017 |  | CCCCCCCCCC(=O)OCC(COP(=O)([O-])OCC[N+](C)(C)C)OC(=O)CCCCCCC (racemic) [ESTER OF PHOSPHOLIPID] |
|  |  | 10 | CCCCCCCCCCP(=O)(O)OC(COCCCCCCCCCC(=O)OC)COP(=O)([O-])OCC[N+](C)(C)C (stereo not drawn) [ESTER OF PHOSPHOLIPID] |
